Measured values taken from US20250161312A1, “A METHOD FOR THE TREATMENT OF CHEMOTHERAPEUTIC DRUG-INDUCED NEPHROTOXICITY” (INSTITUT NATIONAL DE LA SANTÉ ET DE LA RECHERCHE MÉDICALE, priority 2022, published 2025).

Columns and labels:
H1975 cells [1] = assay: Immunoblot quantification in H1975 cells; assay type: cell-based; details: 20 μM cisplatin, 10 nM KW6002, 24 hours
Method: (§1) FIG. 7. […] Caspase 3/-7 activity (n=3 independent experiments) (A) and the number of γH2AX nuclear foci (n=36-63 nuclei/group) (B) were determined. […] Results are expressed as the mean±SEM (n=3 independent experiments). (E) Tail moment was assessed by comet assay. A total of 50 cells per condition were analyzed. *** P<0.001; 1-way ANOVA followed by Tukey's post hoc test. […] (I) KW6002 increased yH2AX expression in tumors from mice of the LLC1 syngeneic model. Quantification of nuclear yH2AX expression.
Cells and tissues were homogenized using RIPA buffer (Sigma) supplemented with protease and phosphatase inhibitors (Pierce). 10 μg of total proteins were heated for 10 min at 70° C. and loaded on NuPAGE Novex gels (Thermo Fisher Scientific). After transfer of proteins to nitrocellulose membranes, membranes were blocked with 5% milk in TBS-tween followed by incubation with anti-cleaved caspase 3 (1/1000; #9661, Cell Signaling) or anti-cleaved PARP1 (1/1000; #5625, Cell Signaling) primary antibodies. Visualization of protein was achieved by using horseradish peroxidase-coupled secondary antibodies (1/2000; #7074, Cell signaling). Detection signal was performed by using the ECL select chemiluminescent kit (GE Healthcare) and Image Quant LAS 4000 (GE Healthcare). Data were analyzed with Image J. Membranes were probed with anti-GAPDH (glyceraldehyde-3-phosphate deshydrogenase) antibody as normalizer (G9545, Sigma).

H1975 cells [2] = assay: Comet assay in H1975 cells; assay type: cell-based; details: FIG. 7E
Method: as §1
Treated cells were suspended (60,000 cells/mL) in low-melt agarose (1613111, Bio-Rad) 0.5% in PBS at 42° C. The suspension was then immediately spread on a comet slide (4250-200-03, R&D Systems). Agarose was allowed to cool down for 20 minutes at 4° C. Then, cell membranes were permeabilized with a lysis solution (2.5M NaCl, 100 mM EDTA, 10 mM Tris-HCl, 1% Triton X-100 [pH 10]) at 4° C. for 1 hour. […] The images were analyzed using an ImageJ in-home macro, in which the head (the nucleus) and tail (the DNA that migrated) of the comet were delimited to get the fluorescence intensity of the head, the fluorescence intensity of the tail, and the length of the tail. The calculation of tail moments was done using the following formula: (length of the comet tail×fluorescence intensity of the tail)/total fluorescence intensity (head+tail).

kidney mouse sections = assay: Red Oil staining of kidney mouse sections; assay type: in vivo; details: Red Oil staining, kidney samples
Method: FIG. 6. KW6002 alleviates the cisplatin-induced nephrotoxicity associated with apoptosis, lipid metabolism, and oxidative stress. (A) Tail moment assessed by comet assay; 50 cells/condition were analyzed. (B and C) KW6002 attenuates cisplatin-induced renal lipid accumulation, assessed by Red Oil staining. […] Results are the mean±SEM (n=6-9 mice/group). (F-H) KW6002 attenuated cisplatin-induced oxidative stress in RPTEC/hTERT1 cells. (F and G) Gene expression of Nrf2 (F) and HO1 (G). […] Results are the mean±SEM (n=3 independent experiments).
10 μm frozen kidney mouse sections were fixed with ethanol (60%) then incubated for 15 min with Oil Red O Solution (Fisher Biotech) dissolved in isopropanol. After several washes with ddH2O, samples were incubated 3 min with hematoxylin. Lipid droplets are stained in red whereas nuclei appeared blue. […] RPTEC/hTERT cells were fixed with ethanol (60%) then incubated for 15 min with Oil Red O Solution. The cells were washed three times with ddH2O and incubated 3 min with hematoxylin. Coverslips were rinsed with H2O before mounting on microscope slides using glycerol gelatin aqueous slide mounting medium (Sigma). Quantifications were performed blindly using ImageJ software. […] The resulting red color images were quantified using a custom threshold (0.173 for RPTEC/hTERT cells and 0.140 for kidney stainings).

## CCn1c(=O)c2c(nc(/C=C/c3ccc(OC)c(OC)c3)n2C)n(CC)c1=O [KW-6002, 8-[(E)-2-(3,4-dimethoxyphenyl)vinyl]-1,3-diethyl-7-methyl-3,7-dihydro-1H-purine-2,6-dione]
H1975 cells [1]; FIG. 7C
  apoptosis: caspase 3: did not impede the antitumoral effect of cisplatin
H1975 cells [1]; FIG. 7D
  apoptosis: PARP: even potentiated the efficacy of cisplatin
H1975 cells [1]; FIG. 7G
  cell cycle: cyclin D1: did not impede the antitumoral effect of cisplatin
H1975 cells [1]; FIG. 7H
  cell cycle: PCNA: even potentiated the efficacy of cisplatin
H1975 cells [2]
  DNA damage: tail moment: did not impede the antitumoral effect of cisplatin
Kidney mouse sections
  cisplatin-induced accumulation of lipid droplets in kidney: significantly reduced
